Test results published in patent US6358885B1, “Substituted phenylheterocyclic herbicides” (Mississippi State University, priority 1992, dated 2002).

Legend:
velvetleaf = assay: Test B preemergence/postemergence greenhouse plant response rating 0 to 10; assay type: in vivo, Abutilon theophrasti; conditions: 0 to 10 scale
Procedure, shortened: (§1)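 Test chemicals, dissolved in a non-phytotoxic solvent, were applied to soil at planting and, at the same time, over foliage of seedlings at the one to four leaf stage.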

chickweed = assay: Test C preemergence/postemergence greenhouse plant response rating 0 to 100; assay type: in vivo, Stellaria media; conditions: POSTEMERGENCE
Procedure, shortened: (§2)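 Compounds in non-phytotoxic solvent went onto sandy loam before emergence (seeded one day earlier) or onto plants at the one-to-four leaf stage. Duck salad was treated via flood water (~2.5 cm, maintained) over silt loam.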

bedstraw = assay: Test B preemergence/postemergence greenhouse plant response rating 0 to 10; assay type: in vivo, Galium aparine; conditions: POSTEMERGENCE, 0 to 10 scale
Procedure, shortened: as §1

morningglory [1] = assay: as above; assay type: in vivo, Ipomoea hederacea; conditions: 0 to 10 scale
Procedure, shortened: as §1

giant foxtail [2] = assay: as above; assay type: in vivo, Setaria faberii; conditions: 0 to 10 scale
Procedure, shortened: as §1

blackgrass = assay: Test C preemergence/postemergence greenhouse plant response rating 0 to 100; assay type: in vivo, Alopecurus myosuroides; conditions: POSTEMERGENCE
Procedure, shortened: as §2

cocklebur = assay: Test B preemergence/postemergence greenhouse plant response rating 0 to 10; assay type: in vivo, Xanthium pensylvanicum; conditions: 0 to 10 scale
Procedure, shortened: as §1

barley [3] = assay: as above; assay type: in vivo, Hordeum vulgare; conditions: 0 to 10 scale
Procedure, shortened: as §1

morningglory [4] = assay: Test C preemergence/postemergence greenhouse plant response rating 0 to 100; assay type: in vivo, Ipomoea hederacea; conditions: POSTEMERGENCE
Procedure, shortened: as §2

cheatgrass = assay: Test B preemergence/postemergence greenhouse plant response rating 0 to 10; assay type: in vivo, Bromus secalinus; conditions: 0 to 10 scale
Procedure, shortened: as §1

lambsquarters = assay: as above; assay type: in vivo, Chenopodium album; conditions: 0 to 10 scale
Procedure, shortened: as §1

giant foxtail [5] = assay: Test C preemergence/postemergence greenhouse plant response rating 0 to 100; assay type: in vivo, Setaria faberii; conditions: POSTEMERGENCE
Procedure, shortened: as §2

rape = assay: as above; assay type: in vivo, Brassica napus; conditions: POSTEMERGENCE
Procedure, shortened: as §2

rice = assay: Test C flood test plant response rating 0 to 100; assay type: in vivo, Oryza sativa
Procedure, shortened: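 Compounds in non-phytotoxic solvent applied preemergence to sandy loam one day after planting, postemergence at the 1–4 leaf stage, or to ~2.5 cm floodwater over silt loam.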

barley [6] = assay: Test C preemergence/postemergence greenhouse plant response rating 0 to 100; assay type: in vivo, Hordeum vulgare; conditions: POSTEMERGENCE
Procedure, shortened: as §2

soybean [7] = assay: Test B preemergence/postemergence greenhouse plant response rating 0 to 10; assay type: in vivo, Glycine max; conditions: 0 to 10 scale
Procedure, shortened: as §1

soybean [8] = assay: Test C preemergence/postemergence greenhouse plant response rating 0 to 100; assay type: in vivo, Glycine max; conditions: POSTEMERGENCE
Procedure, shortened: as §2

sorghum = assay: as above; assay type: in vivo, Sorghum bicolor; conditions: POSTEMERGENCE
Procedure, shortened: as §2

SMILES: C#CCN1C(=O)COc2cc(F)c(-c3nn4c(c3Cl)CCCC4)cc21 [Compound 34]
- Plant response rating, Velvetleaf (velvetleaf; POSTEMERGENCE, Rate 10 g/ha): 10
- Plant response rating, Velvetleaf (velvetleaf; POSTEMERGENCE, Rate 50 g/ha): 1
- Plant response rating, Velvetleaf (velvetleaf; PREEMERGENCE, Rate 50 g/ha): 10
- Plant response rating, Chickweed (chickweed; 62 g/ha, 0 to 100 scale): 100
- Plant response rating (0 to 100), Chickweed (chickweed; Rate 1 g/ha): 75
- Plant response rating (0 to 100), Chickweed (chickweed; Rate 4 g/ha): 75
- Plant response rating (0 to 100), Chickweed (chickweed; Rate 16 g/ha): 100
- Plant response rating, Bedstraw (bedstraw; Rate 10 g/ha): 10
- Plant response rating, Bedstraw (bedstraw; Rate 50 g/ha): 10
- Plant response rating, Morningglory (morningglory [1]; POSTEMERGENCE, Rate 10 g/ha): 9
- Plant response rating, Morningglory (morningglory [1]; POSTEMERGENCE, Rate 50 g/ha): 1
- Plant response rating, Morningglory (morningglory [1]; PREEMERGENCE, Rate 50 g/ha): 2
- Plant response rating, Giant foxtail (giant foxtail [2]; POSTEMERGENCE, Rate 10 g/ha): 4
- Plant response rating, Giant foxtail (giant foxtail [2]; POSTEMERGENCE, Rate 50 g/ha): 5
- Plant response rating, Giant foxtail (giant foxtail [2]; PREEMERGENCE, Rate 10 g/ha): 3
- Plant response rating, Giant foxtail (giant foxtail [2]; PREEMERGENCE, Rate 50 g/ha): 6
- Plant response rating, Blackgrass (blackgrass; 62 g/ha, 0 to 100 scale): 60
- Plant response rating (0 to 100), Blackgrass (blackgrass; Rate 1 g/ha): 20
- Plant response rating (0 to 100), Blackgrass (blackgrass; Rate 4 g/ha): 30
- Plant response rating (0 to 100), Blackgrass (blackgrass; Rate 16 g/ha): 50
- Plant response rating, Cocklebur (cocklebur; POSTEMERGENCE, Rate 10 g/ha): 10
- Plant response rating, Cocklebur (cocklebur; POSTEMERGENCE, Rate 50 g/ha): 1
- Plant response rating, Cocklebur (cocklebur; PREEMERGENCE, Rate 10 g/ha): 0
- Plant response rating, Cocklebur (cocklebur; PREEMERGENCE, Rate 50 g/ha): 2
- Plant response rating, Barley (barley [3]; POSTEMERGENCE, Rate 10 g/ha): 4
- Plant response rating, Barley (barley [3]; POSTEMERGENCE, Rate 50 g/ha): 4
- Plant response rating, Barley (barley [3]; PREEMERGENCE, Rate 10 g/ha): 0
- Plant response rating, Barley (barley [3]; PREEMERGENCE, Rate 50 g/ha): 2
- Plant response rating, Morningglory (morningglory [4]; 62 g/ha, 0 to 100 scale): 100
- Plant response rating (0 to 100), Morningglory (morningglory [4]; Rate 1 g/ha): 60
- Plant response rating (0 to 100), Morningglory (morningglory [4]; Rate 4 g/ha): 100
- Plant response rating (0 to 100), Morningglory (morningglory [4]; Rate 16 g/ha): 100
- Plant response rating, Cheatgrass (cheatgrass; POSTEMERGENCE, Rate 10 g/ha): 4
- Plant response rating, Cheatgrass (cheatgrass; POSTEMERGENCE, Rate 50 g/ha): 5
- Plant response rating, Cheatgrass (cheatgrass; PREEMERGENCE, Rate 10 g/ha): 3
- Plant response rating, Cheatgrass (cheatgrass; PREEMERGENCE, Rate 50 g/ha): 6
- Plant response rating, Lambsquarter (lambsquarters; POSTEMERGENCE, Rate 10 g/ha): 9
- Plant response rating, Lambsquarter (lambsquarters; POSTEMERGENCE, Rate 50 g/ha): 10
- Plant response rating, Lambsquarter (lambsquarters; PREEMERGENCE, Rate 50 g/ha): 10
- Plant response rating, Giant foxtail (giant foxtail [5]; 62 g/ha, 0 to 100 scale): 70
- Plant response rating (0 to 100), Giant foxtail (giant foxtail [5]; Rate 1 g/ha): 20
- Plant response rating (0 to 100), Giant foxtail (giant foxtail [5]; Rate 4 g/ha): 30
- Plant response rating (0 to 100), Giant foxtail (giant foxtail [5]; Rate 16 g/ha): 40
- Plant response rating, Rape (rape; 62 g/ha, 0 to 100 scale): 100
- Plant response rating (0 to 100), Rape (rape; Rate 1 g/ha): 85
- Plant response rating (0 to 100), Rape (rape; Rate 4 g/ha): 100
- Plant response rating (0 to 100), Rape (rape; Rate 16 g/ha): 100
- Plant response rating (0 to 100), Rice Japonica (rice; POSTEMERGENCE section, flood test, Rate 1 g/ha): 20
- Plant response rating (0 to 100), Rice Japonica (rice; POSTEMERGENCE section, flood test, Rate 4 g/ha): 25
- Plant response rating (0 to 100), Rice Japonica (rice; Rate 16 g/ha, under POSTEMERGENCE head (flood test species)): 35
- Plant response rating Rice Japonica (rice; flood test species listed under POSTEMERGENCE, 62 g/ha, 0 to 100 scale): 90
- Plant response rating Barley Igri (barley [6]; 62 g/ha, 0 to 100 scale): 40
- Plant response rating (0 to 100), Barley Igri (barley [6]; Rate 1 g/ha): 20
- Plant response rating (0 to 100), Barley Igri (barley [6]; Rate 4 g/ha): 30
- Plant response rating (0 to 100), Barley Igri (barley [6]; Rate 16 g/ha): 40
- Plant response rating, Soybean (soybean [7]; POSTEMERGENCE, Rate 10 g/ha): 8
- Plant response rating, Soybean (soybean [7]; POSTEMERGENCE, Rate 50 g/ha): 10
- Plant response rating, Soybean (soybean [7]; PREEMERGENCE, Rate 50 g/ha): 6
- Plant response rating, Soybean (soybean [8]; 62 g/ha, 0 to 100 scale): 100
- Plant response rating (0 to 100), Soybean (soybean [8]; Rate 1 g/ha): 50
- Plant response rating (0 to 100), Soybean (soybean [8]; Rate 4 g/ha): 70
- Plant response rating (0 to 100), Soybean (soybean [8]; Rate 16 g/ha): 100
- Plant response rating, Sorghum (sorghum; 62 g/ha, 0 to 100 scale): 70
- Plant response rating (0 to 100), Sorghum (sorghum; Rate 1 g/ha): 30
- Plant response rating (0 to 100), Sorghum (sorghum; Rate 4 g/ha): 40
- Plant response rating (0 to 100), Sorghum (sorghum; Rate 16 g/ha): 50
